Results from patent publication US20230404989A1, “GRK2 INHIBITION BY PAROXETINE AMELIORATES OSTEOARTHRITIS” (THE PENN STATE RESEARCH FOUNDATION, priority 2020, published 2023).

Key:
human OA cartilage [1] = assay: Ex vivo cultured human OA osteochondral plugs: IF staining and RT-qPCR; format: cell-based; settings: paroxetine 5 μM or gallein 10 μM, 48 hrs
Description: An Institutional Review Board-approved protocol was executed to collect discarded de-identified cartilage from patients. For the experiment described in FIG. 3A, we obtained acutely injured human cartilage (from patients undergoing arthroscopic surgery 4 weeks following meniscal injury, N=6) and OA cartilage (from patients undergoing arthroplasty, N=6). Normal controls were obtained from amputees' knees (N=6). Cartilage was fixed in formalin then processed and embedded in paraffin, 5-μm sections were used for immunofluorescence (IF) staining. For the experiment described in FIG. 7, OA osteochondral tissue was collected from patients undergoing total knee arthroplasty. Osteochondral plugs (8-mm diameter) were obtained and bone was flushed with saline solution to remove all bone marrow and blood cells. Plugs were then cultured overnight in low glucose DMEM at 5% CO2 and 37° C. The next morning plugs were treated with either vehicle phosphate buffer saline (PBS), paroxetine (5 μM), or gallein (10 μM), and the drug-containing culture medium was replenished after 24 hrs. After 48 hrs, plugs were fixed for 7 days in 10% neutral buffered formalin (NBF), decalcified for 2 weeks in 10% w/v EDTA, embedded in paraffin, and […] were cut and mounted for histological and IF staining. Alternatively, the cartilage was shaved from plugs and flash-frozen in liquid nitrogen for RNA extraction as described below. mRNA was isolated from human cartilage using the method we published recently, yielding RNA Integrity Number (RIN) values above 7.0 (53). cDNA was prepared using Iscript cDNA synthesis kit from Bio-rad following the manufacturer's protocol. cDNAs were qPCR amplified using TaqMan Gene Expression Assays, with GAPDH as the house keeping gene (ThermoFisher Scientific; described in Table 2) and the 7500 Fast Real-Time PCR System (Applied Biosystems). Paraffin sections were deparaffinized in three changes of xylene for five minutes each, rehydrated in ethanol (two changes of 100% ethanol, followed by two changes of 95% ethanol, followed by one change of 70% ethanol) and rinsed twice in deionized water. Antigen retrieval was performed for 30 minutes at 37° C. using 0.4% pepsin (Sigma P-7000) in 0.1M hydrochloric acid (HCl) and was followed by permeabilization for 30 minutes at room temperature using Triton X in tris buffered saline (TBS). Sections were then blocked for 1 hour at room temperature in 10% normal goat serum in 1×TBS. Tissue sections were incubated overnight at 4° C. with the rabbit anti-mouse primary antibody specific for the target protein (detailed in Table 1).

human OA cartilage [2] = assay: Ex vivo cultured human OA osteochondral plugs: cAMP assay; format: cell-based; settings: paroxetine 5 μM or gallein 10 μM, 48 hrs, versus vehicle
Description: An Institutional Review Board-approved protocol was executed to collect discarded de-identified cartilage from patients. For the experiment described in FIG. 3A, we obtained acutely injured human cartilage (from patients undergoing arthroscopic surgery 4 weeks following meniscal injury, N=6) and OA cartilage (from patients undergoing arthroplasty, N=6). Normal controls were obtained from amputees' knees (N=6). Cartilage was fixed in formalin then processed and embedded in paraffin, 5-μm sections were used for immunofluorescence (IF) staining. For the experiment described in FIG. 7, OA osteochondral tissue was collected from patients undergoing total knee arthroplasty. Osteochondral plugs (8-mm diameter) were obtained and bone was flushed with saline solution to remove all bone marrow and blood cells. […] Gas activity was measured by quantifying cAMP content in cartilage pooled from 3 mice. […] Frozen cartilage was pulverized using 500 μL lysis buffer as we have previously described (H. K. Le Bleu, Anal Biochem, 518, 134-138 (2017)). cAMP content was quantified using the Cyclic AMP XP Assay kit (Cell Signaling, #4339) and following manufacturer's protocol, with 0.5 mM IBMX added to the lysis buffer to prevent phosphodiesterase mediated cAMP degradation during the extraction process. cAMP levels in different groups were normalized to that of sham mice or the vehicle treated human cartilage.

DMM mice [3] = assay: DMM mice treated with PTH, paroxetine or their combination: histology and histomorphometry (Example 1); format: in vivo, mouse; settings: treatment week 8 to 12, PTH sc 40 μg/kg/day, paroxetine ip 5 mg/kg/day
Description: Methods: Destabilization of the medial meniscus (DMM) surgery was used to simulate clinical post-traumatic OA. First, we determined the role of GRK2 inhibition in PTH1R Gas-cAMP signaling: 12 week old male mice underwent sham or DMM surgery and were treated with either vehicle or the GRK2 inhibitor “paroxetine” (ip, 5 mg/kg/day), treatment was initiated at the time of surgery and continued daily until 8 weeks. Knees were harvested and articular cartilage was obtained for ex vivo analysis of Gas activity. In ex vivo culture, cartilage explants were treated with PTH as an agonist to stimulate PTH1R-Ga-cAMP signaling. Thirty minutes following PTH stimulation, cartilage tissue was homogenized and cAMP levels were measured. Then, we determined the role of GRK2 inhibition in recovering or even potentiating PTH1R signaling in OA cartilage: 12 week old male mice underwent sham or DMM surgery, and received treatment with vehicle, PTH (sc, 40 μg/kg/day) alone, the GRK2 inhibitor “paroxetine3” (ip, 5 mg/kg/day) alone, or their combination. Treatment was initiated at week 8 following DMM surgery, where OA is in progress, and continued until week 12 where mice were sacrificed. Knees were harvested, paraffin embedded, sectioned and stained with safranin-o and fast green for histological evaluation, OARSI scoring, and histomorphometric analysis. Results are expressed as mean values+s.e.m. with an N=5-8 mice per experimental group. Statistical analyses were performed using one ANVOA with P<0.05 representing statistical significance.

DMM mice [4] = assay: Gait (stride length) in DMM mice; format: in vivo, mouse; settings: daily treatment week 8 to 12, measured 12 weeks following DMM
Description: Paroxetine normalizes changes in the gait of DMM mice. Stride length in centimeters measured for sham mice and DMM mice 12 weeks following DMM. DMM mice received respective daily treatments from week 8 until week 12 following DMM: vehicle (V) or Paroxetine (Px). **P<0.01 & ***P<0.001

PTH1R Gas/cAMP signaling = assay: PTH-stimulated cAMP in articular cartilage explants of sham or DMM mice treated with paroxetine; set-up: species or system mouse; settings: paroxetine ip 5 mg/kg/day for 8 weeks, cartilage stimulated with PTH ex vivo, 30 minutes
Description: Methods: Destabilization of the medial meniscus (DMM) surgery was used to simulate clinical post-traumatic OA. First, we determined the role of GRK2 inhibition in PTH1R Gas-cAMP signaling: 12 week old male mice underwent sham or DMM surgery and were treated with either vehicle or the GRK2 inhibitor “paroxetine” (ip, 5 mg/kg/day), treatment was initiated at the time of surgery and continued daily until 8 weeks. Knees were harvested and articular cartilage was obtained for ex vivo analysis of Gas activity. In ex vivo culture, cartilage explants were treated with PTH as an agonist to stimulate PTH1R-Ga-cAMP signaling. Thirty minutes following PTH stimulation, cartilage tissue was homogenized and cAMP levels were measured. Then, we determined the role of GRK2 inhibition in recovering or even potentiating PTH1R signaling in OA cartilage: 12 week old male mice underwent sham or DMM surgery, and received treatment with vehicle, PTH (sc, 40 μg/kg/day) alone, the GRK2 inhibitor “paroxetine3” (ip, 5 mg/kg/day) alone, or their combination. Treatment was initiated at week 8 following DMM surgery, where OA is in progress, and continued until week 12 where mice were sacrificed. […] Results are expressed as mean values+s.e.m. with an N=5-8 mice per experimental group. […]

Row | SMILES | ADAMTS5 mRNA expression (RT-qPCR) (human OA cartilage [1]) | ADAMTS5 protein expression (IF staining) (human OA cartilage [1]) | GRK2 mRNA expression (RT-qPCR) (human OA cartilage [1]) | GRK2 protein expression (IF staining) (human OA cartilage [1]) | MMP13 mRNA expression (RT-qPCR) (human OA cartilage [1]) | MMP13 protein expression (IF staining) (human OA cartilage [1]) | cAMP production (human OA cartilage [2]) | chondrocyte number (DMM mice [3]) | number of matrix-producing (anabolic) chondrocytes (DMM mice [3]) | uncalcified cartilage area (DMM mice [3]) | changes in the gait (stride length) (DMM mice [4]) | PTH/PTH1R-mediated cAMP production (PTH1R Gas/cAMP signaling; DMM mice) | PTH/PTH1R-mediated cAMP production (PTH1R Gas/cAMP signaling; sham mice)
1 | O=C1OC2(c3ccccc31)c1ccc(O)c(O)c1Oc1c2ccc(O)c1O [gallein] | did not achieve statistical significance | attenuated | not affected | reduced | did not achieve statistical significance | attenuated | significant increase |  |  |  |  |  | 
2 | Fc1ccc([C@@H]2CCNC[C@H]2COc2ccc3c(c2)OCO3)cc1 [paroxetine] | significantly inhibited | significantly inhibited | not affected | reduced | significantly inhibited | significantly inhibited | significant increase | increased | particular increase | increased | normalizes | recovered | potentiated
